Test results from patent US9427482B2, “Agents for clearing biomolecules from circulation” (KONINKLIJKE PHILIPS N.V., priority 2010, dated 2016).

Tested on: LS174T xenografts
Experiment: Biodistribution of ^125I-CC49-TCO 18 and ^177Lu-tetrazine 15 with one or two doses of 12 (Example 9)
Assay type: in vivo, mice
Experimental: LS174T tumor model. The human colon cancer cell line LS174T was obtained from the ATCC and maintained in Eagle's minimal essential medium (Sigma) supplemented with 10% heat inactivated fetal calf serum (Gibco), penicillin (100 U/mL), streptomycin (100 μg/mL) and […] Glutamax. Nude female Balb/C mice (20-25 g body weight, Charles River Laboratories) were inoculated subcutaneously with 5×10^6 cells in 100 μL sterile PBS.
Nude female mice (n=4) bearing LS174T xenografts (0.29±0.16 g) were injected ^125I-CC49-TCO 18 (t=0, 100 μg/100 μl per mouse) followed by one 160 μg/100 μl dose of galactose-MSA-tetrazine (12) 30 hours post mAb injection, or two 160 μg/100 μl 12 doses 30 and 48 hours post mAb injection. Two hours after the last clearing agent dose the mice were administered 8.52 μg of ^177Lu-labeled tetrazine 15 (10 equiv. with respect to mAb) and were sacrificed 3 hours post tetrazine injection. Blood was withdrawn by heart puncture and selected organs and tissues were harvested and blotted dry. The blood samples and tissues were weighed, added with 1 mL PBS and the radioactivity was counted in a gamma counter along with standards to determine the % ID/g. The differences between columns were analyzed using the two-tailed unpaired t-test (Graphpad Prism v. 5.01)

[1] = Two doses of 12, 30 and 48 h post mAb

With `O=C([O-])CN1CCN(CC(=O)[O-])CCN(CC(=O)NCCOCCOCCOCCOCCOCCOCCOCCOCCOCCOCCOCCNC(=O)CCCC(=O)Nc2ccc(-c3nnc(-c4ccccn4)nn3)nc2)CCN(CC(=O)[O-])CC1.[177Lu+3]` [^177Lu-tetrazine] the “^177Lu-tetrazine T/blood” value (One dose of 12, 30 h post mAb) was 45.9±14.2, the “^177Lu-tetrazine T/bone” value (One dose of 12, 30 h post mAb) was 136.1 ± 68.7 and the “^177Lu-tetrazine T/brain” value (One dose of 12, 30 h post mAb) was 935.9 ± 297.1. For the same compound, the “^177Lu-tetrazine T/heart” value (One dose of 12, 30 h post mAb) was 64.7 ± 18.0, the “^177Lu-tetrazine T/kidney” value (One dose of 12, 30 h post mAb) was 7.9 ± 3.3 and the “^177Lu-tetrazine T/liver” value (One dose of 12, 30 h post mAb) was 32.4 ± 6.3. For the same compound, the “^177Lu-tetrazine T/lung” value (One dose of 12, 30 h post mAb) was 28.1 ± 11.8, the “^177Lu-tetrazine T/muscle” value (One dose of 12, 30 h post mAb) was 128.5 ± 83.7 and the “^177Lu-tetrazine T/spleen” value (One dose of 12, 30 h post mAb) was 50.5 ± 10.9. The “^177Lu-tetrazine in blood” value (One dose of 12, 30 h post mAb) was 0.17 ± 0.06 % ID/g, the “^177Lu-tetrazine in bone” value (One dose of 12, 30 h post mAb) was 0.06 ± 0.03 % ID/g and the “^177Lu-tetrazine in brain” value (One dose of 12, 30 h post mAb) was 0.01 ± 0.00 % ID/g. The “^177Lu-tetrazine in heart” value (One dose of 12, 30 h post mAb) was 0.12 ± 0.03 % ID/g, the “^177Lu-tetrazine in kidney” value (One dose of 12, 30 h post mAb) was 1.06 ± 0.39 % ID/g and the “^177Lu-tetrazine in liver” value (One dose of 12, 30 h post mAb) was 0.23 ± 0.00 % ID/g. The “^177Lu-tetrazine in lung” value (One dose of 12, 30 h post mAb) was 0.28 ± 0.05 % ID/g, the “^177Lu-tetrazine in muscle” value (One dose of 12, 30 h post mAb) was 0.08 ± 0.04 % ID/g and the “^177Lu-tetrazine in spleen” value (One dose of 12, 30 h post mAb) was 0.15 ± 0.03 % ID/g. The “^177Lu-tetrazine in tumor” value (One dose of 12, 30 h post mAb) was 7.48 ± 1.46 % ID/g, the “^177Lu-tetrazine T/bone” value [1] was 123.3 ± 80.3 and the “^177Lu-tetrazine T/brain” value [1] was 1146.7 ± 122.9. The “^177Lu-tetrazine T/heart” value [1] was 142.4 ± 18.5, the “^177Lu-tetrazine T/kidney” value [1] was 3.4 ± 0.4 and the “^177Lu-tetrazine T/liver” value [1] was 30.8 ± 2.9. The “^177Lu-tetrazine T/lung” value [1] was 26.2 ± 3.9, the “^177Lu-tetrazine T/muscle” value [1] was 140.9 ± 67.1 and the “^177Lu-tetrazine T/spleen” value [1] was 63.7 ± 9.2. The “^177Lu-tetrazine in blood” value [1] was 0.03 ± 0.00 % ID/g, the “^177Lu-tetrazine in bone” value [1] was 0.08 ± 0.08 % ID/g and the “^177Lu-tetrazine in brain” value [1] was 0.00 ± 0.00 % ID/g. For the same compound, the “^177Lu-tetrazine in heart” value [1] was 0.04 ± 0.00 % ID/g, the “^177Lu-tetrazine in kidney” value [1] was 1.58 ± 0.14 % ID/g and the “^177Lu-tetrazine in liver” value [1] was 0.18 ± 0.02 % ID/g. For the same compound, the “^177Lu-tetrazine in lung” value [1] was 0.21 ± 0.03 % ID/g, the “^177Lu-tetrazine in muscle” value [1] was 0.05 ± 0.03 % ID/g and the “^177Lu-tetrazine in spleen” value [1] was 0.09 ± 0.01 % ID/g. The “^177Lu-tetrazine in tumor” value [1] was 5.38 ± 0.48 % ID/g.
